Data on 37 molecules can be found in patent US8003648B2, “Heterocyclic GPR40 modulators” (Amgen Inc., priority 2006, dated 2011).

Each structure is given as a SMILES string.

For the assay, the target named is T1, human GPR40 (Homo sapiens, UniProt O14842).
T1 construct: host or cells: CHO cells
T1 sequence (O14842 whole entry): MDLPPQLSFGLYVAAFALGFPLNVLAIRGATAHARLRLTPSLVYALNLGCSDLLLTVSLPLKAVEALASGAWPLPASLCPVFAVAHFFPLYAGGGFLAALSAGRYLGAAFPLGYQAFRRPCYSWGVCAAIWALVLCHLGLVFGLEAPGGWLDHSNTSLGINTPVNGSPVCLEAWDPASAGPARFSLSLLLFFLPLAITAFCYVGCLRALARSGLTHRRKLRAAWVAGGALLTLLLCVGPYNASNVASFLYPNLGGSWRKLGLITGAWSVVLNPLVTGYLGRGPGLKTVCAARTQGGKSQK
Put plainly: Cell-based aequorin assay using human GPR40. The following applies: activation of human GPR40; CHO cells stably transfected with GPR40 and Aequorin; 0.01% HSA; aequorin luminescence. As for the experimental part: Cell-based aequorin assays were employed to characterize the modulatory activity of compounds on the GPR40 signaling pathway. In an exemplary assay, CHO cells were stably transfected with both GPR40 and Aequorin (Euroscreen). Cells were detached from the tissue culture dish with 2 mL of trypsin (0.25% (w/v)). Trypsinization was halted with 28 mL of Hanks Buffered Salt Solution containing 20 mM Hepes (H/HBSS) and 0.01% fatty acid-free human serum albumin (HSA). Coelantrazine is added to 1 ug/mL, and the cells were incubated for 2 hours at room temperature. Compounds were dissolved in DMSO for preparation of 10 mM stock solutions. Compounds were diluted in H/HBSS containing 0.01% HSA. Serial dilutions of the test compounds were prepared to determine dose response.
Aequorin luminescence measurements were made using an EG&G Berthold 96-well luminometer, and the response was measured over a 20 second interval after cells and compounds were mixed. The maximum relative light units was plotted to determine dose response. The EC50 (effective concentration to reach 50% maximal response) was determined from the dose response plot.
Table 1 presents representative data (EC50 values) obtained for exemplary compounds of the invention for the activation of human GPR40. […]
In turn, `CC(C)(C)OC(=O)N1CC=C(c2cccc(COc3ccc([C@H](CC(=O)O)c4ccon4)cc3)c2)CC1` [Example 34, (S)-3-(4-(3-(1-(Tert-butoxycarbonyl)-1,2,3,6-tetrahydropyridin-4-yl)benzyloxy)phenyl)-3-(isoxazol-3-yl)propanoic acid] yielded an EC50 of 1000 to 10000 nM.

In the case of `C=C(C)c1ccc(COc2ccc([C@H](CC(=O)O)c3ccon3)cc2)cc1OC(F)(F)F` [Example 35, (S)-3-(4-(4-(Prop-1-en-2-yl)-3-(trifluoromethoxy)benzyloxy)-phenyl)-3-(isoxazol-3-yl)propanoic acid], the half-maximal effective concentration (EC50) is 10 to 100 nM.

Regarding `CC1(C)CCC=C1c1ccc(COc2ccc([C@H](CC(=O)O)c3ccon3)cc2)cc1OC(F)(F)F` [Example 36, (S)-3-(4-(4-(5,5-Dimethylcyclopent-1-enyl)-3-(trifluoromethoxy)benzyloxy)phenyl)-3-(isoxazol-3-yl)propanoic acid], the concentration giving a half-maximal response (EC50) was 100 to 1000 nM.

For `CC(C)c1ccc(COc2ccc([C@H](CC(=O)O)c3ccon3)cc2)cc1OC(F)(F)F` [Example 37, (S)-3-(4-(4-Isopropyl-3-(trifluoromethoxy)benzyloxy)phenyl)-3-(isoxazol-3-yl)propanoic acid], the EC50 is 10 to 100 nM.

Regarding `CC1(C)CCC=C1c1cc(COc2ccc([C@H](CC(=O)O)c3ccon3)cc2)ccc1OC(F)(F)F` [Example 38, (S)-3-(4-(3-(5,5-Dimethylcyclopent-1-enyl)-4-(trifluoromethoxy)benzyloxy)phenyl)-3-(isoxazol-3-yl)propanoic acid], the EC50 fell in the range of 10 to 100 nM.

`Cc1cc([C@@H](CC(=O)O)c2ccc(OCc3cccc(-c4ccc(C(F)(F)F)cc4)c3)cc2)no1` [Example 39, (S)-3-(4-(3-(4-(Trifluoromethyl)phenyl)benzyloxy)phenyl)-3-(5-methylisoxazol-3-yl)propanoic acid] came in with an EC50 of 100 to 10000 nM.

Take `CC1(C)CCC(C)(C)c2cc(COc3ccc([C@H](CC(=O)O)c4ccon4)cc3)ccc21` [Example 40, (S)-3-(Isoxazol-3-yl)-3-(4-((5,5,8,8-tetramethyl-5,6,7,8-tetrahydronaphthalen-2-yl)methoxy)phenyl)propanoic acid]: the concentration for a half-maximal effect (EC50) is 10 to 100 nM.

On to `CC1(C)CCC(C)(C)c2cc(COc3ccc([C@@H](CC(=O)O)c4ccon4)cc3)ccc21` [Example 41, (R)-3-(Isoxazol-3-yl)-3-(4-((5,5,8,8-tetramethyl-5,6,7,8-tetrahydronaphthalen-2-yl)methoxy)phenyl)propanoic acid], for which the EC50 fell in the range of 1000 to 10000 nM.

With `CC1(C)CCC(C)(C)c2cc(COc3ccc(C(CC(=O)O)C4=NOCC4)cc3)ccc21` (stereo not shown) [Example 42, 3-(4,5-Dihydroisoxazol-3-yl)-3-(4-((5,5,8,8-tetramethyl-5,6,7,8-tetrahydronaphthalen-2-yl)methoxy)phenyl)propanoic acid], the concentration giving a half-maximal response (EC50) was 100 to 1000 nM.

The molecule `CCOCCOc1cc(COc2ccc([C@H](CC(=O)O)c3ccon3)cc2)c(Br)cc1C(C)(C)C` [Example 46, (S)-3-(4-(2-Bromo-4-tert-butyl-5-(2-ethoxyethoxy)benzyloxy)phenyl)-3-(isoxazol-3-yl)propanoic acid] came in with a concentration giving a half-maximal response (EC50) of 100 to 1000 nM.

In the case of `O=C(O)C[C@@H](c1ccc(OCCOc2ccc(C(F)(F)F)cc2)cc1)c1ccon1` [Example 47, (S)-3-(Isoxazol-3-yl)-3-(4-(2-(4-(trifluoromethyl)phenoxy)ethoxy)phenyl)propanoic acid], the half-maximal effective concentration (EC50) lay in the range of 100 to 1000 nM.

`O=C(O)C[C@@H](c1ccc(OCCCOc2ccc(C(F)(F)F)cc2)cc1)c1ccon1` [Example 48]: the EC50 fell in the range of 100 to 1000 nM.

The molecule `O=C(O)C[C@@H](c1ccc(OCCCCOc2ccc(C(F)(F)F)cc2)cc1)c1ccon1` [Example 49] gave an EC50 of 100 to 1000 nM.

`Cc1oc(-c2ccc(C(F)(F)F)cc2)nc1COc1ccc([C@H](CC(=O)O)c2ccon2)cc1` [Example 50, (S)-3-(Isoxazol-3-yl)-3-(4-((5-methyl-2-(4-(trifluoromethyl)phenyl)oxazol-4-yl)methoxy)phenyl)propanoic acid] showed an EC50 of 100 to 1000 nM.

As to `Cc1nc(-c2ccc(C(F)(F)F)cc2)oc1COc1ccc([C@H](CC(=O)O)c2ccon2)cc1` [Example 51, (S)-3-(Isoxazol-3-yl)-3-(4-((4-methyl-2-(4-(trifluoromethyl)phenyl)oxazol-5-yl)methoxy)phenyl)propanoic acid], the EC50 was in the range of 100 to 1000 nM.

`Cc1oc(-c2ccc(C(F)(F)F)cc2)cc1COc1ccc([C@H](CC(=O)O)c2ccon2)cc1` [Example 52, (S)-3-(Isoxazol-3-yl)-3-(4-((2-methyl-5-(4-(trifluoromethyl)phenyl)furan-3-yl)methoxy)phenyl)propanoic acid] registered an EC50 of 10 to 100 nM.

For the molecule `Cc1oc(-c2ccc(Cl)cc2)cc1COc1ccc([C@H](CC(=O)O)c2ccon2)cc1` [Example 53, (S)-3-(4-((5-(4-Chlorophenyl)-2-methylfuran-3-yl)methoxy)phenyl)-3-(isoxazol-3-yl)propanoic acid], the EC50 was in the range of 10 to 100 nM.

As to `CCN(CC)Cc1ccc(-c2nc(C)c(COc3ccc([C@H](CC(=O)O)c4ccon4)cc3)s2)cc1` [Example 54, (S)-3-(4-((2-(4-((Diethylamino)methyl)phenyl)-4-methylthiazol-5-yl)methoxy)phenyl)-3-(isoxazol-3-yl)propanoic acid], the EC50 lay within 1000 to 10000 nM.

Consider `Cc1nc(-c2ccc(CCCO)cc2)sc1COc1ccc([C@H](CC(=O)O)c2ccon2)cc1` [Example 55, (S)-3-(4-((2-(4-(3-Hydroxypropyl)phenyl)-4-methylthiazol-5-yl)methoxy)phenyl)-3-(isoxazol-3-yl)propanoic acid], for which the EC50 lay within 1000 to 10000 nM.

Molecule `CCCCc1ccc(-c2cc(COc3ccc([C@H](CC(=O)O)c4ccon4)cc3)c(C)o2)cc1` [Example 56] displayed an EC50 of 100 to 1000 nM.

For the molecule `Cc1nc(-c2ccc(Cl)cc2)sc1COc1ccc([C@H](CC(=O)O)c2ccon2)cc1` [Example 57, (S)-3-(Isoxazol-3-yl)-3-(4-((4-methyl-2-(4-chlorophenyl)thiazol-5-yl)methoxy)phenyl)propanoic acid], the EC50 was 10 to 100 nM.

In the case of `Cc1ccc(-c2nc(C)c(COc3ccc([C@H](CC(=O)O)c4ccon4)cc3)s2)cc1` [Example 58, (S)-3-(Isoxazol-3-yl)-3-(4-((4-methyl-2-(4-methylphenyl)thiazol-5-yl)methoxy)phenyl)propanoic acid], the EC50 was in the range of 10 to 100 nM.

Regarding `Cc1ccc(-c2nc(C)c(COc3ccc([C@@H](CC(=O)O)c4ccon4)cc3)s2)cc1` [Example 59, (R)-3-(Isoxazol-3-yl)-3-(4-((4-methyl-2-(4-methylphenyl)thiazol-5-yl)methoxy)phenyl)propanoic acid], the EC50 was 1000 to 10000 nM.

The molecule `CCCCc1ccc(-c2ccc(COc3ccc([C@H](CC(=O)O)c4ccon4)cc3)s2)cc1` [Example 60, (3S)-3-(4-(((5-(4-butylphenyl)-2-thienyl)methyl)oxy)phenyl)-3-(3-isoxazolyl)propanoic acid] displayed an EC50 of 10 to 100 nM.

Take `O=C(O)C[C@@H](c1ccc(OCc2ccc(-c3ccc(C(F)(F)F)cc3)s2)cc1)c1ccon1` [Example 61, (3S)-3-(3-Isoxazolyl)-3-(4-(((5-(4-(trifluoromethyl)phenyl)-2-thienyl)methyl)oxy)phenyl)propanoic acid]: the EC50 lay within 10 to 100 nM.

Regarding `Cc1cc(-c2ccc(C(F)(F)F)cc2)sc1COc1ccc([C@H](CC(=O)O)c2ccon2)cc1` [Example 62, (3S)-3-(3-Isoxazolyl)-3-(4-(((3-methyl-5-(4-(trifluoromethyl)phenyl)-2-thienyl)methyl)oxy)phenyl)propanoic acid], the EC50 was 10 to 100 nM.

`O=C(O)C[C@@H](c1ccc(OCc2noc(-c3ccccc3)n2)cc1)c1ccon1` [Example 63] displayed an EC50 of 1000 to 10000 nM.

The molecule `COc1ccccc1-c1nc(COc2ccc([C@H](CC(=O)O)c3ccon3)cc2)no1` [Example 64] displayed an EC50 of 1000 to 10000 nM.

Regarding `O=C(O)C[C@@H](c1ccc(OCc2noc(-c3ccc(C(F)(F)F)cc3)n2)cc1)c1ccon1` [Example 65], the EC50 fell in the range of 1000 to 10000 nM.

With `O=C(O)C[C@@H](c1ccc(OCc2noc(-c3cccc(C(F)(F)F)c3)n2)cc1)c1ccon1` [Example 66], the EC50 lay within 1000 to 10000 nM.

Regarding `O=C(O)C[C@@H](c1ccc(OCc2nc(-c3ccccc3)no2)cc1)c1ccon1` [Example 67], the EC50 lay within 1000 to 10000 nM.

The molecule `O=C(O)C[C@@H](c1ccc(OCc2nc(-c3cccc(C(F)(F)F)c3)no2)cc1)c1ccon1` [Example 68] yielded an EC50 of 1000 to 10000 nM.

As for `O=C(O)C[C@@H](c1ccc(OCc2nc(-c3ccc(Cl)cc3)no2)cc1)c1ccon1` [Example 69], the EC50 was 1000 to 10000 nM.

As for `CC(C)(C)c1ccc(-c2noc(COc3ccc([C@H](CC(=O)O)c4ccon4)cc3)n2)cc1` [Example 70], the EC50 was in the range of 100 to 1000 nM.

In the case of `O=C(O)C[C@@H](c1ccc(OCc2nc(-c3c(Cl)cccc3Cl)no2)cc1)c1ccon1` [Example 71], the EC50 is 1000 to 10000 nM.

`Cc1nc(-c2cccc(C(F)(F)F)c2)sc1COc1ccc([C@H](CC(=O)O)c2ccon2)cc1` [Example 72, (3S)-3-(Isoxazol-3-yl)-3-(4-((4-methyl-2-(3-(trifluoromethyl)phenyl)thiazol-5-yl)methoxy)phenyl)propanoic acid] displayed an EC50 of 10 to 100 nM.

Molecule `CCCCOc1ccc(-c2nc(C)c(COc3ccc([C@H](CC(=O)O)c4ccon4)cc3)s2)cc1F` [Example 75, (3S)-3-(4-((2-(4-Butoxy-3-fluorophenyl)-4-methylthiazol-5-yl)methoxy)phenyl)-3-(isoxazol-3-yl)propanoic acid] yielded an EC50 of 10 to 100 nM.
